According to ChEMBL document CHEMBL2169829, “Water mediated ligand functional group cooperativity: the contribution of a methyl group to binding affinity is enhanced by a COO(-) group through changes in the structure and thermodynamics of the hydration waters of ligand-thermolysin complexes” (J Med Chem, 2012):
pKi: −log10 of the molar value.

Target: T1, Thermolysin (Bacillus thermoproteolyticus, UniProt P00800)
T1 sequence (P00800 whole entry): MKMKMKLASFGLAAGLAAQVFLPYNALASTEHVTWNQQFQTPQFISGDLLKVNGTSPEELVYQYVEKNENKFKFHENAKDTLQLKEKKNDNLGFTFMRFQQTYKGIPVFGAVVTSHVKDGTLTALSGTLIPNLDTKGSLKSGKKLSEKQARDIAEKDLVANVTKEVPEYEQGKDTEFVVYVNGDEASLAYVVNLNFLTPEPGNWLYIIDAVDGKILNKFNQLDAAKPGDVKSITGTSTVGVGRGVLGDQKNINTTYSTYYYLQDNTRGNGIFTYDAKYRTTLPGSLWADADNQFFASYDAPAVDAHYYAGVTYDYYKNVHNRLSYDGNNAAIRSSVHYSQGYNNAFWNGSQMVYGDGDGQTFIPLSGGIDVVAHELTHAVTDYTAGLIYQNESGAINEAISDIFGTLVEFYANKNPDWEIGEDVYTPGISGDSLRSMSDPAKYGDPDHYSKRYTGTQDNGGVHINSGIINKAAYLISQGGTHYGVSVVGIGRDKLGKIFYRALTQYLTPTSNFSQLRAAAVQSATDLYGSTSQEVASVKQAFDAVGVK
Test: Binding affinity to Bacillus thermoproteolyticus thermolysin by UV-VIS spectrophotometric analysis in presence of 2-furanacryloyl-Gly-Leu-NH2

Compound	pKi
CC(C)C[C@H](NP(=O)(O)CNC(=O)OCc1ccccc1)C(=O)N[C@@H](C)C(=O)O	7.72
CNC(=O)[C@H](CC(C)C)NP(=O)(O)CNC(=O)OCc1ccccc1	6.04
CCNC(=O)[C@H](CC(C)C)NP(=O)(O)CNC(=O)OCc1ccccc1	6.54
CC(C)C[C@H](NP(=O)(O)CNC(=O)OCc1ccccc1)C(=O)NCC(=O)O	6.33
